Test results: patent publication US11180474B2 (BRISTOL-MYERS SQUIBB COMPANY, priority 2016, dated 2021)

Experiments:
human TLR7 = target: T1, human TLR7 (Homo sapiens, UniProt Q9NYK1); test: TLR7 inhibition reporter assay (HEK-Blue cells, SEAP reporter, gardiquimod stimulation); format: cell-based; details: HEK-Blue cells overexpressing human TLR7, gardiquimod 7.5 μM
T1 construct: host or cells: HEK-Blue cells
T1 sequence (Q9NYK1 27-1049): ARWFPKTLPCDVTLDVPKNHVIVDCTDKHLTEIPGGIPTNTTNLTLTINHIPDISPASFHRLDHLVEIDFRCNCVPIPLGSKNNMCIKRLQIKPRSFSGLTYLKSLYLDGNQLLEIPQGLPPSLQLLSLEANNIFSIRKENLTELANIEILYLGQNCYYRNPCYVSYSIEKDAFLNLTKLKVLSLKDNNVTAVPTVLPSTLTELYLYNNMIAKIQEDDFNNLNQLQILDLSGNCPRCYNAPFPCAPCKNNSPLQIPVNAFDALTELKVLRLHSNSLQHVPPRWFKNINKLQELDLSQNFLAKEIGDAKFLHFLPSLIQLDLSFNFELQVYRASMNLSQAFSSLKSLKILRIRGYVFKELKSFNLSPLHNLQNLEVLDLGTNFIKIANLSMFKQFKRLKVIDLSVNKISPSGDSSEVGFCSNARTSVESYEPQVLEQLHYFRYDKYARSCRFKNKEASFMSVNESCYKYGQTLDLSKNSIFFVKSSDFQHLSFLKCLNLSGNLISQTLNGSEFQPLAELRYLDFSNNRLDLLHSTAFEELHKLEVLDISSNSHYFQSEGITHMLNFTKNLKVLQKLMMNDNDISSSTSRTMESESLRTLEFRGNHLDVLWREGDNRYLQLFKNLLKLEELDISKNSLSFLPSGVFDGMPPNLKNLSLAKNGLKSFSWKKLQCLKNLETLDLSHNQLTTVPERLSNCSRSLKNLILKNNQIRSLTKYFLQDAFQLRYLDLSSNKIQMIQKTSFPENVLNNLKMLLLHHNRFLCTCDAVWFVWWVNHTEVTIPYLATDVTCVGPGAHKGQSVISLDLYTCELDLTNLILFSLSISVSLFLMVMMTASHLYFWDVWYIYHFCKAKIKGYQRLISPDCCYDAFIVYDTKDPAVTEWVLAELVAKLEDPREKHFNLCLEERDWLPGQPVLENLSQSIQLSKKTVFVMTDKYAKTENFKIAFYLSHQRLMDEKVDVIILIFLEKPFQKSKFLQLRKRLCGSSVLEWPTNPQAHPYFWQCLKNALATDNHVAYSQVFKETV
Procedure, shortened: (§1)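 HEK-Blue reporter cells (15,000/well TLR7, 20,000 TLR8) exposed to compound over 0.05 nM–50 μM, agonist-stimulated (R848 for TLR8, gardiquimod for TLR7), 22 h at 37 °C, 5% CO2. SEAP read with HEK-Blue Detection; % inhibition relative to agonist-plus-DMSO and known-inhibitor controls.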

human TLR8 = target: T2, human TLR8 (Homo sapiens, UniProt Q9NR97); test: TLR8 inhibition reporter assay (HEK-Blue cells, SEAP reporter, R848 stimulation); format: cell-based; details: HEK-Blue cells overexpressing human TLR8, R848 15.9 μM
T2 construct: host or cells: HEK-Blue cells
T2 sequence (Q9NR97 27-1041): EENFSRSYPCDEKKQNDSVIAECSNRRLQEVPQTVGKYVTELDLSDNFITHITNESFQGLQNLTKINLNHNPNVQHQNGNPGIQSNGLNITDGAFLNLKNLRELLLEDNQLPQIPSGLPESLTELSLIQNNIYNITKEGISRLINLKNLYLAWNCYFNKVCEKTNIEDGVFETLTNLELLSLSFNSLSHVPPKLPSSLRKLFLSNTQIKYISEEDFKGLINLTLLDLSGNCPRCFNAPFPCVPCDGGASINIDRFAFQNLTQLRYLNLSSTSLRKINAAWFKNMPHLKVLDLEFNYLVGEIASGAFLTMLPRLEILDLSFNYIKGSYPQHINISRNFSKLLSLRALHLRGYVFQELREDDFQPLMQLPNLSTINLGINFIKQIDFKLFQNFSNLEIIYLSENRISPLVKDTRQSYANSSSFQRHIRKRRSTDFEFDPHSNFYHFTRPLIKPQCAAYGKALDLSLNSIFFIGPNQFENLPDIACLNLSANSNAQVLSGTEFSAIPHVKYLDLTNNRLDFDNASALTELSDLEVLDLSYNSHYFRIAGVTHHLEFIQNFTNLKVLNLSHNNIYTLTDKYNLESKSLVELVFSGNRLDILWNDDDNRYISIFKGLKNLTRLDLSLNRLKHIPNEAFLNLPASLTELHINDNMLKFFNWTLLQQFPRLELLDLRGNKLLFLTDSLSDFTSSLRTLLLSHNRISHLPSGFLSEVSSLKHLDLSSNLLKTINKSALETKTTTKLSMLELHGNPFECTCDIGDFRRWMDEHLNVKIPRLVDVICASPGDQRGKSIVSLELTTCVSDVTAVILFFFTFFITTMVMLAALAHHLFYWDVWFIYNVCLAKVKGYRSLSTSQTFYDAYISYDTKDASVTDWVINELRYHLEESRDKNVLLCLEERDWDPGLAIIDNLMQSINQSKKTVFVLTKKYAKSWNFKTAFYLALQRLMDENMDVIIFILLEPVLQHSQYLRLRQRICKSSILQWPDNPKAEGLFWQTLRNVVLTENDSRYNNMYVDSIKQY
Procedure, shortened: as §1

IC50 (human TLR7)	IC50 (human TLR8)	Compound
0.063 µM	0.076 µM	COc1ccc(-c2[nH]c3ccc(C4CCN(CC(=O)NCC#N)CC4)cc3c2CC(F)(F)F)cc1OC [Example 381, N-(cyanomethyl)-2-(4-(2-(3,4-dimethoxyphenyl)-3-(2,2,2-trifluoroethyl)-1H-indol-5-yl)piperidin-1-yl)acetamide]
0.233 µM	0.204 µM	CCC(C)NC(=O)CN1CCC(c2ccc3[nH]c(-c4ccc(OC)c(OC)c4)c(CC(F)(F)F)c3c2)CC1 (centres unmarked) [Example 377, N-(sec-butyl)-2-(4-(2-(3,4-dimethoxyphenyl)-3-(2,2,2-trifluoroethyl)-1H-indol-5-yl)piperidin-1-yl)acetamide]
0.101 µM	0.043 µM	COc1ccc(-c2[nH]c3ccc(C4CCN(CC(=O)N5CCC(C(N)=O)CC5)CC4)cc3c2CC(F)(F)F)cc1OC [Example 369, 1-(2-(4-(2-(3,4-dimethoxyphenyl)-3-(2,2,2-trifluoroethyl)-1H-indol-5-yl)piperidin-1-yl)acetyl)piperidine-4-carboxamide]
0.69 µM	0.943 µM	COc1ccc(-c2[nH]c3ccc(C4CCN(C(=O)NCCc5ccccc5)CC4)cc3c2CC(F)(F)F)cc1OC [Example 357, 4-(2-(3,4-dimethoxyphenyl)-3-(2,2,2-trifluoroethyl)-1H-indol-5-yl)-N-phenethylpiperidine-1-carboxamide]
1.49 µM	1.46 µM	COc1ccc(-c2[nH]c3ccc(C4CCN(C(=O)Cc5ccc(N(C)C)cc5)CC4)cc3c2CC(F)(F)F)cc1OC [Example 338, 1-(4-(2-(3,4-dimethoxyphenyl)-3-(2,2,2-trifluoroethyl)-1H-indol-5-yl)piperidin-1-yl)-2-(4-(dimethylamino)phenyl)ethan-1-one]
0.174 µM	0.371 µM	COc1ccc(-c2[nH]c3ccc(C4CCN(C(=O)CCCNC(C)=O)CC4)cc3c2CC(F)(F)F)cc1OC [Example 343, N-(4-(4-(2-(3,4-dimethoxyphenyl)-3-(2,2,2-trifluoroethyl)-1H-indol-5-yl)piperidin-1-yl)-4-oxobutyl)acetamide]
0.291 µM	0.671 µM	COc1ccc(-c2[nH]c3ccc(C4CCN(C(=O)COc5cccnc5)CC4)cc3c2CC(F)(F)F)cc1OC [Example 349, 1-(4-(2-(3,4-dimethoxyphenyl)-3-(2,2,2-trifluoroethyl)-1H-indol-5-yl)piperidin-1-yl)-2-(pyridin-3-yloxy)ethan-1-one]
0.061 µM	0.438 µM	COc1ccc(-c2[nH]c3ccc(C4CCN(C(=O)CN(C)C)CC4)cc3c2C(O)C(F)(F)F)cc1OC (centres unmarked) [Example 395, 1-(4-(2-(3,4-dimethoxyphenyl)-3-(2,2,2-trifluoro-1-hydroxyethyl)-1H-indol-5-yl)piperidin-1-yl)-2-(dimethylamino)ethan-1-one]
0.071 µM	0.124 µM	COc1ccc(-c2[nH]c3ccc(C4CCNCC4F)cc3c2C(C)C)cc1OC (racemic) [Example 320, 2-(3,4-dimethoxyphenyl)-5-(3-fluoropiperidin-4-yl)-3-isopropyl-1H-indole]
5.03 µM	9.39 µM	COc1ccc(-c2[nH]c3ccc(C4CCN(C(=O)Cc5nnn[nH]5)CC4)cc3c2CC(F)(F)F)cc1OC [Example 341, 1-(4-(2-(3,4-dimethoxyphenyl)-3-(2,2,2-trifluoroethyl)-1H-indol-5-yl)piperidin-1-yl)-2-(1H-tetrazol-5-yl)ethan-1-one]
